How the values were obtained:
Format in all cases: cell-based
[1] = biological target: OR8/OR7 (Anopheles gambiae, UniProt Q7PUT5+Q7QCC7); experiment: Ca2+-imaging of stable HEK293T cell line OR8/OR7; conditions: for inhibition at 4 µM: HEK-293T, compound applied at 4 μM, read-out: Percent Inhibition OR8 OR7; for IC50: Table B, read-out: IC50 OR8
Description: (§1) Full-length cDNAs for mosquito (Anopheles gambiae) odorant receptor (OR1, OR2, OR7, OR8, OR28), and fly (Drosophila melanogaster) odorant receptor (Or47a, Or83b), mouse TRP channel (TRPM8), and mouse serotonin receptor (5HT3) were obtained and subcloned into mammalian expression vectors. The following mammalian expression vectors were used:
(§2) Stable cell lines OR1/OR7, OR2/OR7, OR8/OR7, OR10/OR7, OR28/OR7 and TRPM8 were generated from HEK293T cells. HEK293T-based cell lines were cultured in DMEM supplemented with these additional antibiotics: 6 μg/mL blasticidin and 1 μg/mL puromycin, with the exception of the TRPM8 cell lines, which was cultured in DMEM supplemented with 1 μg/mL puromycin.
(§3) Cells were trypsinized and split into 35 mm dishes one day before transfection. Confluent cells (60-70%) in 35 mm dishes were transfected with 1 μg of insect OR(X) plasmids in pME18s-bla and 1 μg of OR7-pME18s-puro using lipofectamine 2000. For Anopheles odorant receptors, two plasmids were co-transfected into HEK cells: the ligand-specific receptor (OR1, OR2, OR8, OR28) and the corresponding olfactory co-receptor: OR7. Cell lines containing TRPM8 were transfected with single plasmid.
(§4) Stable cell lines were cultured in 10 cm dishes, and confluent cells (70-80%) were trypsinized. 10,000 cells/20 μL were transferred into each well of 384-well plates coated with poly-D-lysine, and cultured for 2 days. For Flip-In T-Rex cells (cell lines expressing Or47a/Or83b and 5HT3), 5 μL of tetracycline (5 μg/mL) were added 1 day before the assay. 20 μL of Ca-4 dye was loaded into each well for 1.5 hr at room temperature in the dark, and the dye-loaded plates were subjected to Ca^2+-imaging using a Hamamatsu FDSS6000 real time fluorescence plate reader. Odorant solutions (9× final concentration) were prepared by dissolving 1M stock solutions into Hank's Buffered Salt Solution (HBSS), and 30 μL of odor solution was transferred to each well in 384-well plates.
(§5) Compounds ([…] in DMSO) were stored in 384-well plates, and last two columns (32 wells total) contained only DMSO. 200 nL of small compounds were transferred into the odorant plates before the assay using the Perkin-Elmer Janus workstation. The odorant plates were spun down to remove air bubbles, and placed on the FDSS6000 plate loader, and 5 μL of odorant solution was applied to the cell plate on the FDSS6000. Ca^2+ increase was monitored with fluorescence at 525 nm by excitation at 485 nm.

[2] = biological target: OR10/OR7 (Anopheles gambiae, UniProt B5U0U7+Q7QCC7); experiment: Ca2+-imaging of stable HEK293T cell line OR10/OR7; conditions: for inhibition at 4 µM: HEK-293T, compound applied at 4 μM, read-out: Percent Inhibition OR10 OR7; for IC50: Table B, read-out: IC50 OR10
OR10/OR7, sequence (Q7QCC7 whole entry): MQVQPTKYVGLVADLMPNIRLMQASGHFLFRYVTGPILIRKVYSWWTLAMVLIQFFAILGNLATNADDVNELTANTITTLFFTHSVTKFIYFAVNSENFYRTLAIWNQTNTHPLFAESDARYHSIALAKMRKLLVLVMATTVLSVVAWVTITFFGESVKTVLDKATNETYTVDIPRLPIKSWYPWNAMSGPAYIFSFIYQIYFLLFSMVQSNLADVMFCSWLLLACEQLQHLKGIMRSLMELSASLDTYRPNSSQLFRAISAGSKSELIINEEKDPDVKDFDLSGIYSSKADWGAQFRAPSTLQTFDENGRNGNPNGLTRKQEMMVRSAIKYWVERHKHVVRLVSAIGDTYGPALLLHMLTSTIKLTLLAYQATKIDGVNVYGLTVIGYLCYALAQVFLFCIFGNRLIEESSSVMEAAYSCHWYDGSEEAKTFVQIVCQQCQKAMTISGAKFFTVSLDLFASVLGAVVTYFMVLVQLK
OR10/OR7, sequence (B5U0U7 entry or part of it): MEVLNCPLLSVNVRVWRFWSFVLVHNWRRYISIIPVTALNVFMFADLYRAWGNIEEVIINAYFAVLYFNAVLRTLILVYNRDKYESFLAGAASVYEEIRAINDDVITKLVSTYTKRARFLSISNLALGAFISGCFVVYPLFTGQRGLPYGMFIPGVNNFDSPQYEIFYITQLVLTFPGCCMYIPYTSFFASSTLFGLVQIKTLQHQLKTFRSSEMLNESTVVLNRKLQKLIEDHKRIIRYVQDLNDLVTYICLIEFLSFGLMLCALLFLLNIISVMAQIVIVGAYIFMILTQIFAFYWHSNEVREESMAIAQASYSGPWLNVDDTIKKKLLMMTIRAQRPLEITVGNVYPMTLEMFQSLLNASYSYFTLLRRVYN
Description: as §2
After one day of incubation, the transfected cells were transferred into 10 cm dishes with DMEM containing antibiotics as follows: • 0.5 μg/mL of blasticidin for OR1/OR7, OR2/OR7, OR8/OR7, OR10/OR7, OR28/OR7 • 0.2 μg/mL of puromycin for TRPM8.
as §4, §5

[3] = biological target: T1, mOREG (Mus musculus, UniProt Q920P2); experiment: Ca2+-imaging, control receptor mOREG; conditions: for inhibition at 4 µM: compound applied at 4 μM, read-out: Percent Inhibition mOREG
T1 sequence (Q920P2 1-313): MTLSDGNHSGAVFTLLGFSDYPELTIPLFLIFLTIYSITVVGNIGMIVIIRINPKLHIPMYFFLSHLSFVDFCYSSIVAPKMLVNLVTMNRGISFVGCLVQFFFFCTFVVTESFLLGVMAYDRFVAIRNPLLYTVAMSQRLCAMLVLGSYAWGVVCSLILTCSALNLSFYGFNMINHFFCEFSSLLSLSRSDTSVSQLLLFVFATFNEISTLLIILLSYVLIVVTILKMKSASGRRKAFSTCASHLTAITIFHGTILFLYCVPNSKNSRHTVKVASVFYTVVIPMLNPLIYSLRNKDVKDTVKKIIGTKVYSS
Description: as §4, with “plates. The last two columns of the plate (32 wells total) were used as control wells as follows: • negative control with HBSS buffer (16 wells) • positive control with ligands (16 wells).” for “plates.”
as §5

[4] = biological target: T2, TRP channel (TRPM8) (Mus musculus, UniProt Q8R4D5); experiment: Ca2+-imaging of stable HEK293T cell line TRPM8; conditions: HEK-293T; compound applied at 4 μM; read-out: Percent Inhibition TRPM8
T2 construct: Full-length cDNAs for mosquito (Anopheles gambiae) odorant receptor (OR1, OR2, OR7, OR8, OR28), and fly (Drosophila melanogaster) odorant receptor (Or47a, Or83b), mouse TRP channel (TRPM8); expressed in transfected cells
T2 sequence (Q8R4D5 whole entry): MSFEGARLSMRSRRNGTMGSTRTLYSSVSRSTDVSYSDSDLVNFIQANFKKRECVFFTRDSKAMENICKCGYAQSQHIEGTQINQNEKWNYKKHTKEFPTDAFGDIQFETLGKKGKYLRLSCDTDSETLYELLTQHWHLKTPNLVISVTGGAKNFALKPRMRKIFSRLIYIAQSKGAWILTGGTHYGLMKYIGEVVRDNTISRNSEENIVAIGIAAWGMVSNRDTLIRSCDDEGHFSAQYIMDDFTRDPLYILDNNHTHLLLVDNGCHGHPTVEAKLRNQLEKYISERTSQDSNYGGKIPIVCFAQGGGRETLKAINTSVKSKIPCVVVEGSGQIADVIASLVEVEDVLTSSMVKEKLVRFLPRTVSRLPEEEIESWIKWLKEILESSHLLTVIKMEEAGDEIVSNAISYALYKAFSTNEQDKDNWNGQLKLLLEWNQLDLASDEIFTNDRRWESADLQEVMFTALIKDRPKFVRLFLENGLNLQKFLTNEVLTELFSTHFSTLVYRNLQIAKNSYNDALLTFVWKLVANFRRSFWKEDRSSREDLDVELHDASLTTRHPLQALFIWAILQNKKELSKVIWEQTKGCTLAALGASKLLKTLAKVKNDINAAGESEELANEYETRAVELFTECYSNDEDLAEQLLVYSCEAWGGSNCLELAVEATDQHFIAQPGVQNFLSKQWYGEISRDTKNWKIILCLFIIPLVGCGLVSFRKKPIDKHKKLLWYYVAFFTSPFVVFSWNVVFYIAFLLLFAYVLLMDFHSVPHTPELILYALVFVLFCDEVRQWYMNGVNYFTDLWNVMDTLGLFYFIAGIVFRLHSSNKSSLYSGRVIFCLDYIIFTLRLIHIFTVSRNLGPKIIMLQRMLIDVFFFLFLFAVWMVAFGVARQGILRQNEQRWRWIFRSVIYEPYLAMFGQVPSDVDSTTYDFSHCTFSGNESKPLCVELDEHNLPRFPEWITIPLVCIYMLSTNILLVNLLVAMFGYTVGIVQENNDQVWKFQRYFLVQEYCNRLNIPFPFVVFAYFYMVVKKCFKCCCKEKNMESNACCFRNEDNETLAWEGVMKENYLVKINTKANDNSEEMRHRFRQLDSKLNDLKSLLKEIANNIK
Description: as §1, §2, §3, §4, §5

OR8/OR7, sequence (Q7QCC7 whole entry): as the sequence (Q7QCC7 whole entry) above
OR8/OR7, sequence (Q7PUT5 entry or part of it): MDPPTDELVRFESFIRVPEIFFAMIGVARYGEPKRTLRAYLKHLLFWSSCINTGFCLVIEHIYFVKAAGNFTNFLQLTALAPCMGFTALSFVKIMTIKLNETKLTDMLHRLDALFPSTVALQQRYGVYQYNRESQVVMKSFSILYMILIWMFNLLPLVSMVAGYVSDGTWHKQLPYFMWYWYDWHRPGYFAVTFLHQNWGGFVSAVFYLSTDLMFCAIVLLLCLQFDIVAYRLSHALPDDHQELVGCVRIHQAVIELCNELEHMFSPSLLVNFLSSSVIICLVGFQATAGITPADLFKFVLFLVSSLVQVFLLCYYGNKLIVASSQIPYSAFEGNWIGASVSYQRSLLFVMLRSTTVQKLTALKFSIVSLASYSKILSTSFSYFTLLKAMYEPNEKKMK

Row | SMILES | inhibition at 4 µM [1] [%] | inhibition at 4 µM [2] [%] | IC50 [2] [nM] | inhibition at 4 µM [3] [%] | inhibition at 4 µM [4] [%] | IC50 ([3]; Table B) [nM] | IC50 [1] [nM]
1 | Cc1cccc(Cn2ccnc2CN(C(=O)c2ccccc2F)C2CCCCC2)c1 [RU-0047851] | < 25 | > 75 | < 100 | 26 to 50 | < 25 | – | –
2 | O=C(c1ccco1)N(Cc1nccn1Cc1c(F)cccc1Cl)C1CC1 [RU-0048046] | < 25 | 51 to 74 | < 100 | < 25 | < 25 | – | –
3 | COc1ccc(-n2c(Cc3ccccc3)nnc2SCCCC(=O)N2CCN(C(=O)c3ccc(C(F)(F)F)cc3)C(C)C2)cc1 (stereo not shown) [RU-0071828] | < 25 | 26 to 50 | > 1000 | 26 to 50 | < 25 | – | –
4 | COCCCN(Cc1c(-c2ccccc2)noc1N(C)C(C)C)C(=O)c1ccccc1OC [RU-0037003] | 26 to 50 | < 25 | – | 26 to 50 | < 25 | – | –
5 | Cc1ccccc1C(=O)N[C@@H]1CCCCC1NC(=O)C1CCN(C(=O)c2ccc(C(C)(C)C)cc2)CC1 (stereo partly shown) [RU-0045678] | 26 to 50 | > 75 | > 1000 | 26 to 50 | < 25 | – | –
6 | CCN(C)c1onc(-c2ccccc2)c1CN(CCCOC)C(=O)c1ccco1 [RU-0051926] | < 25 | 26 to 50 | – | < 25 | < 25 | – | –
7 | COc1ccccc1CC(=O)N1CCOC(COc2ccc(C)cc2)C1 (stereo not shown) [RU-0050390] | < 25 | < 25 | – | < 25 | < 25 | – | –
8 | CCN(CC)c1onc(-c2ccccc2)c1CN(CC1CCCO1)C(=O)c1ccco1 (stereo not shown) [RU-0036855] | 26 to 50 | < 25 | – | 26 to 50 | 26 to 50 | – | –
9 | Cc1cc(N(C)C2CCCCC2)nc(SCc2cccc(C(=O)N3CCCC3)c2)n1 [RU-0034108] | < 25 | 26 to 50 | – | < 25 | < 25 | – | –
10 | Cc1ccccc1C(=O)N[C@@H]1CCCCC1NC(=O)C1CCN(C(=O)c2cc(C(F)(F)F)cc(C(F)(F)F)c2)CC1 (stereo partly shown) [RU-0045778] | < 25 | < 25 | – | 26 to 50 | < 25 | – | –
11 | O=C(c1cccnc1Cl)N1CCOC(COCc2c(Cl)cccc2Cl)C1 (stereo not shown) [RU-0050372] | < 25 | 26 to 50 | – | < 25 | < 25 | – | –
12 | C=CCOc1cccc(C(=O)N2CCCC(C(=O)c3ccccc3OC)C2)c1 (stereo not shown) [RU-0029409] | 26 to 50 | 26 to 50 | – | < 25 | 26 to 50 | – | –
13 | CCc1c(C(=O)NCc2cccnc2)cnn1-c1ccccc1 [RU-0048504] | < 25 | 51 to 74 | < 100 | < 25 | < 25 | – | –
14 | COc1cccc(NC(=O)CCC2CCN(C(=O)CSc3ccccc3)CC2)c1 [RU-0032474] | < 25 | < 25 | – | < 25 | < 25 | – | –
15 | Cc1cccc(NC(=O)CCC2CCN(C(=O)CCOc3ccccc3)CC2)c1 [RU-0030324] | 26 to 50 | 26 to 50 | – | 51 to 74 | 26 to 50 | > 1000 | –
16 | COCCN(Cc1c(-c2ccccc2)noc1N(C)C1CCCCC1)C(=O)c1ccccc1OC [RU-0037275] | 51 to 74 | < 25 | – | 26 to 50 | < 25 | – | > 1000
17 | COc1ccc(-c2cc(-c3ccccc3)n(C(=O)CN3CCN(Cc4ccccc4)CC3)n2)cc1 [RU-0038795] | < 25 | < 25 | – | 26 to 50 | < 25 | – | –
18 | O=C(c1ccco1)N(Cc1ccco1)Cc1nccn1Cc1ccccc1F [RU-0047694] | 51 to 74 | 51 to 74 | < 100 | < 25 | < 25 | – | 100 to 1000
19 | CCOC(=O)CCC(=O)N(CCc1ccccc1)CC(=O)Nc1cc(C(C)(C)C)nn1-c1ccccc1C [RU-0072462] | < 25 | 26 to 50 | – | < 25 | < 25 | – | –
20 | CCCCCCCC(=O)N1CCCC(C(=O)NC2CCCC[C@H]2NC(=O)c2ccccc2C)C1 (stereo partly shown) [RU-0045756] | < 25 | < 25 | – | 26 to 50 | < 25 | – | –
21 | C=CCN(Cc1nccn1Cc1ccc(Cl)c(Cl)c1)C(=O)c1ccccc1F [RU-0047955] | < 25 | > 75 | < 100 | < 25 | < 25 | – | –
